Assay results from US6737383B1, “Herbicidal oxadiazolidines” (priority 1999, dated 2004).

Tests used:
green foxtail = experiment: Test E green foxtail; format: in vivo, Setaria viridis; conditions: Preemergence
bamyardgrass = experiment: Test B flood test barnyardgrass; format: in vivo, Echinochloa crus-galli
Procedure, shortened: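 Read-out is a visual response score from 0 (no effect) to 10 (complete control), assigned by comparison with untreated controls. Treatment was applied at the 2-leaf stage, and plants stayed in the greenhouse for twelve to sixteen days before scoring.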

blackgrass [1] = experiment: Test B pre/postemergence blackgrass; format: in vivo, Alopecurus myosuroides
Procedure, shortened: (§1)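 Test chemicals in a non-phytotoxic solvent mixture with surfactant were sprayed preemergence onto planted seeds and postemergence onto plants 2 to 18 cm tall (1- to 4-leaf stage). After twelve to sixteen days in a greenhouse, injury was visually rated against untreated controls from 0 (no effect) to 10 (complete control).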

crabgrass = experiment: Test B pre/postemergence crabgrass; format: in vivo, Digitaria sanguinalis
Procedure, shortened: as §1

blackgrass [2] = experiment: Test E blackgrass; format: in vivo, Alopecurus myosuroides; conditions: Preemergence
winter wheat [3] = experiment: Test E winter wheat; format: in vivo, Triticum aestivum; conditions: Preemergence
wild oat = experiment: Test E wild oat; format: in vivo, Avena fatua; conditions: Preemergence
common pursiane = experiment: Test D common purslane; format: in vivo, Portulaca oleracea
Procedure, shortened: (§2)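 Each weed species is planted in its own pot or compartment; preemergence doses go on the sandy loam surface within a day. The formulation is a surfactant-containing, non-phytotoxic solvent blend. Ratings come from visual comparison with untreated controls 14 to 21 days later, where 100 means complete control.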

Italian ryegrass = experiment: Test E Italian ryegrass; format: in vivo, Lolium multiflorum; conditions: Preemergence
winter wheat [4] = experiment: Test E winter wheat; format: in vivo, Triticum aestivum; conditions: Postemergence
Procedure, shortened: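 Compounds formulated in non-phytotoxic solvent mixture with surfactant; for postemergence, sprayed on plants at 1- to 4-leaf stage grown in 60:40 sandy loam/greenhouse potting mix. Kept in greenhouse ~21 to 28 days, then visually rated against untreated controls.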

morningglory = experiment: Test B pre/postemergence morningglory; format: in vivo, Ipomoea hederacea
Procedure, shortened: as §1

purple nutsedge = experiment: Test D purple nutsedge; format: in vivo, Cyperus rotundus; conditions: Preemergence, 0 to 100 scale
Procedure, shortened: as §2

large crabgrass = experiment: Test D large crabgrass; format: in vivo, Digitaria sanguinalis; conditions: Preemergence, 0 to 100 scale
Procedure, shortened: as §2

winter barley = experiment: Test E winter barley; format: in vivo, Hordeum vulgare; conditions: Preemergence
Spanishneedles = experiment: Test D Spanishneedles; format: in vivo, Bidens bipinnata; conditions: Preemergence, 0 to 100 scale
Procedure, shortened: as §2

[5] = Rate 62 g/ha, 0 to 100 scale, 0 no effect, 100 complete control
[6] = Postemergence, Rate 62 g/ha, scale 0 to 10, 0 is no effect, 10 is complete control
[7] = Rate 125 g/ha, Postemergence section (flood test species), scale 0 to 10, 0 no effect, 10 complete control
[8] = Rate 500 g/ha, listed under Postemergence (flood test species), scale 0 to 10, 0 no effect, 10 complete control
[9] = flood test, listed under Postemergence, Rate 250 g/ha, scale 0 to 10, 0 no effect, 10 complete control
[10] = Postemergence, Rate 125 g/ha, scale of 0 to 10 where 0 is no effect and 10 is complete control
[11] = Postemergence, Rate 250 g/ha, scale 0 to 10, 0 no effect, 10 complete control
[12] = Preemergence, Rate 62 g/ha, scale 0 to 10 (0 no effect, 10 complete control)
[13] = Preemergence, Rate 125 g/ha, scale 0 to 10 (0 no effect, 10 complete control)
[14] = Preemergence, Rate 250 g/ha, scale of 0 to 10 where 0 is no effect and 10 is complete control
[15] = Preemergence, Rate 500 g/ha, scale 0 to 10 (0 no effect, 10 complete control)
[16] = Rate 62 g/ha, Postemergence, scale of 0 to 10 where 0 is no effect and 10 is complete control
[17] = Rate 500 g/ha, Postemergence, scale 0 to 10, 0 no effect, 10 complete control
[18] = Rate 125 g/ha, 0 to 100 scale (0 no effect, 100 complete control)
[19] = Rate 250 g/ha; Preemergence; 0 to 100 scale
[20] = Rate 500 g/ha; Preemergence; 0 to 100 scale
[21] = Rate 250 g/ha, 0 to 100 scale (0 no effect, 100 complete control)
[22] = Rate 16 g/ha, 0 no injury, 100 complete control
[23] = Rate 32 g/ha, 0 no injury, 100 complete control
[24] = Rate 64 g/ha, 0 no injury, 100 complete control
[25] = Rate 125 g/ha, 0 no injury, 100 complete control

SMILES: CCn1c(=O)on(C(=O)N(c2ccc(Cl)cc2)C(C)C)c1=O [Compound 108]
- Plant response rating, Green foxtail (green foxtail; [5]): 65
- Plant response rating, Green foxtail (green foxtail; Rate 250 g/ha, 0 to 100 scale): 90
- Barnyardgrass plant response rating (bamyardgrass; [6]): 0
- Barnyardgrass plant response rating (bamyardgrass; [7]): 0
- Barnyardgrass plant response rating (bamyardgrass; Rate 250 g/ha, headed Pre-emergence (flood test species), scale 0 to 10 (0 no effect, 10 complete control)): 0
- Plant response rating, Barnyardgrass (bamyardgrass; Rate 500 g/ha, headed Pre-emergence (flood test species), scale 0 to 10 (0 no effect, 10 complete control)): 0
- Barnyardgrass plant response rating (bamyardgrass; [8]): 0
- Barnyardgrass plant response rating (bamyardgrass; Rate 1000 g/ha, Pre-emergence (as headed), scale 0 to 10): 0
- Barnyardgrass plant response rating (bamyardgrass; Rate 2000 g/ha, Pre-emergence (as headed), scale 0 to 10, 0 no effect, 10 complete control): 0
- Barnyardgrass plant response rating (bamyardgrass; [9]): 0
- Blackgrass plant response rating (blackgrass [1]; [10]): 7
- Blackgrass plant response rating (blackgrass [1]; [11]): 7
- Blackgrass plant response rating (blackgrass [1]; [12]): 5
- Plant response rating, Blackgrass (blackgrass [1]; [13]): 7
- Plant response rating, Blackgrass (blackgrass [1]; [14]): 9
- Blackgrass plant response rating (blackgrass [1]; [15]): 10
- Blackgrass plant response rating (blackgrass [1]; [16]): 4
- Blackgrass plant response rating (blackgrass [1]; [17]): 8
- Crabgrass plant response rating (crabgrass; [10]): 8
- Crabgrass plant response rating (crabgrass; [11]): 8
- Crabgrass plant response rating (crabgrass; [12]): 7
- Plant response rating, Crabgrass (crabgrass; [13]): 9
- Plant response rating, Crabgrass (crabgrass; [14]): 9
- Crabgrass plant response rating (crabgrass; [15]): 10
- Crabgrass plant response rating (crabgrass; [16]): 4
- Crabgrass plant response rating (crabgrass; [17]): 9
- Plant response rating, Blackgrass (blackgrass [2]; [5]): 40
- Plant response rating, Blackgrass (blackgrass [2]; [18]): 75
- Plant response rating, Blackgrass (blackgrass [2]; Rate 250 g/ha, 0 to 100 scale): 90
- Plant response rating, Wheat (winter) (winter wheat [3]; [5]): 0
- Plant response rating, Wheat (winter) (winter wheat [3]; [18]): 10
- Plant response rating, Wheat (winter) (winter wheat [3]; Rate 250 g/ha, 0 to 100 scale): 10
- Plant response rating, Wild oat (wild oat; [5]): 15
- Plant response rating, Wild oat (wild oat; [18]): 30
- Plant response rating, C. purslane (common pursiane; Rate 16 g/ha; Preemergence; 0 to 100 scale, 0 no injury, 100 complete control): 0
- Plant response rating, C. purslane (common pursiane; Rate 32 g/ha; Preemergence; 0 to 100 scale, 0 no injury, 100 complete control): 0
- Plant response rating, C. purslane (common pursiane; Rate 64 g/ha, Preemergence; 0 to 100 scale, 0 no injury, 100 complete control): 0
- Plant response rating, C. purslane (common pursiane; Rate 125 g/ha, Preemergence; 0 to 100 scale, 0 no injury, 100 complete control): 0
- Plant response rating, C. purslane (common pursiane; [19]): 0
- Plant response rating, C. purslane (common pursiane; Rate 500 g/ha, Preemergence; 0 to 100 scale): 80
- Plant response rating, C. purslane (common pursiane; [20]): 0
- Plant response rating, I. Ryegrass (Italian ryegrass; [5]): 20
- Plant response rating, I. Ryegrass (Italian ryegrass; [18]): 45
- Plant response rating, I. Ryegrass (Italian ryegrass; Rate 250 g/ha, 0 to 100 scale): 95
- Plant response rating, Wheat (winter) (winter wheat [4]; Rate 62 g/ha, 0 to 100 scale): 0
- Plant response rating, Wheat (winter) (winter wheat [4]; Rate 125 g/ha, 0 to 100 scale): 20
- Plant response rating, Wheat (winter) (winter wheat [4]; [21]): 40
- Morningglory plant response rating (morningglory; [10]): 3
- Morningglory plant response rating (morningglory; [11]): 3
- Morningglory plant response rating (morningglory; [12]): 0
- Plant response rating, Morningglory (morningglory; [13]): 0
- Plant response rating, Morningglory (morningglory; [14]): 0
- Morningglory plant response rating (morningglory; [15]): 0
- Morningglory plant response rating (morningglory; [16]): 0
- Morningglory plant response rating (morningglory; [17]): 3
- Plant response rating, Purple nutsedge (purple nutsedge; [22]): 0
- Plant response rating, Purple nutsedge (purple nutsedge; [23]): 0
- Purple nutsedge plant response rating (purple nutsedge; [24]): 0
- Purple nutsedge plant response rating (purple nutsedge; [25]): 10
- Plant response rating, Purple nutsedge (purple nutsedge; Rate 250 g/ha): 10
- Plant response rating, Purple nutsedge (purple nutsedge; Rate 500 g/ha): 30
- Plant response rating, Large crabgrass (large crabgrass; [22]): 85
- Plant response rating, Large crabgrass (large crabgrass; [23]): 100
- Plant response rating, Large crabgrass (large crabgrass; [24]): 100
- Plant response rating, Large crabgrass (large crabgrass; [25]): 100
- Plant response rating, Large crabgrass (large crabgrass; Rate 250 g/ha): 100
- Plant response rating, Large crabgrass (large crabgrass; Rate 500 g/ha): 100
- Plant response rating, Barley (winter) (winter barley; [5]): 10
- Plant response rating, Barley (winter) (winter barley; [18]): 20
- Plant response rating, Barley (winter) (winter barley; Rate 250 g/ha, 0 to 100 scale): 10
- Plant response rating, Spanishneedles (Spanishneedles; [22]): 0
- Plant response rating, Spanishneedles (Spanishneedles; [23]): 0
- Spanishneedles plant response rating (Spanishneedles; [24]): 0
- Spanishneedles plant response rating (Spanishneedles; [25]): 0
- Plant response rating, Spanishneedles (Spanishneedles; Rate 500 g/ha): 20

SMILES: CC(C)N(C(=O)n1oc(=O)n(C2CCCCC2)c1=O)c1ccc(F)cc1 [Compound 110]
- Plant response rating, Green foxtail (green foxtail; [5]): 30
- Plant response rating, Green foxtail (green foxtail; [18]): 60
- Plant response rating, Green foxtail (green foxtail; Rate 250 g/ha, 0 to 100 scale): 85
- Barnyardgrass plant response rating (bamyardgrass; [6]): 0
- Barnyardgrass plant response rating (bamyardgrass; [7]): 0
- Barnyardgrass plant response rating (bamyardgrass; [8]): 0
- Barnyardgrass plant response rating (bamyardgrass; [9]): 0
- Blackgrass plant response rating (blackgrass [1]; [10]): 4
- Blackgrass plant response rating (blackgrass [1]; [11]): 4
- Blackgrass plant response rating (blackgrass [1]; [12]): 0
- Plant response rating, Blackgrass (blackgrass [1]; [13]): 3
- Plant response rating, Blackgrass (blackgrass [1]; [14]): 7
- Blackgrass plant response rating (blackgrass [1]; [15]): 7
- Blackgrass plant response rating (blackgrass [1]; [16]): 1
- Blackgrass plant response rating (blackgrass [1]; [17]): 8
- Crabgrass plant response rating (crabgrass; [10]): 3
- Crabgrass plant response rating (crabgrass; [11]): 3
- Crabgrass plant response rating (crabgrass; [12]): 3
- Plant response rating, Crabgrass (crabgrass; [13]): 3
- Plant response rating, Crabgrass (crabgrass; [14]): 9
- Crabgrass plant response rating (crabgrass; [15]): 10
- Crabgrass plant response rating (crabgrass; [16]): 2
- Crabgrass plant response rating (crabgrass; [17]): 8
- Plant response rating, Blackgrass (blackgrass [2]; [5]): 20
- Plant response rating, Blackgrass (blackgrass [2]; [18]): 50
- Plant response rating, Blackgrass (blackgrass [2]; Rate 250 g/ha, 0 to 100 scale): 60
- Plant response rating, Wheat (winter) (winter wheat [3]; [5]): 0
- Plant response rating, Wheat (winter) (winter wheat [3]; [18]): 0
- Plant response rating, Wheat (winter) (winter wheat [3]; Rate 250 g/ha, 0 to 100 scale): 0
- Plant response rating, Wild oat (wild oat; [5]): 0
- Plant response rating, Wild oat (wild oat; [18]): 0
- Plant response rating, C. purslane (common pursiane; [19]): 0
- Plant response rating, C. purslane (common pursiane; [20]): 0
- Plant response rating, I. Ryegrass (Italian ryegrass; [5]): 0
- Plant response rating, I. Ryegrass (Italian ryegrass; [18]): 0
- Plant response rating, I. Ryegrass (Italian ryegrass; Rate 250 g/ha, 0 to 100 scale): 20
- Plant response rating, Wheat (winter) (winter wheat [4]; Rate 62 g/ha, 0 to 100 scale): 0
- Plant response rating, Wheat (winter) (winter wheat [4]; Rate 125 g/ha, 0 to 100 scale): 0
- Plant response rating, Wheat (winter) (winter wheat [4]; [21]): 0
- Morningglory plant response rating (morningglory; [10]): 5
- Morningglory plant response rating (morningglory; [11]): 5
- Morningglory plant response rating (morningglory; [12]): 0
- Plant response rating, Morningglory (morningglory; [13]): 0
- Plant response rating, Morningglory (morningglory; [14]): 0
- Morningglory plant response rating (morningglory; [15]): 0
- Morningglory plant response rating (morningglory; [16]): 4
- Morningglory plant response rating (morningglory; [17]): 5
- Plant response rating, Purple nutsedge (purple nutsedge; Rate 250 g/ha): 0
- Plant response rating, Purple nutsedge (purple nutsedge; Rate 500 g/ha): 0
- Plant response rating, Large crabgrass (large crabgrass; Rate 250 g/ha): 100
- Plant response rating, Large crabgrass (large crabgrass; Rate 500 g/ha): 100
- Plant response rating, Barley (winter) (winter barley; [5]): 0
- Plant response rating, Barley (winter) (winter barley; [18]): 0
- Plant response rating, Barley (winter) (winter barley; Rate 250 g/ha, 0 to 100 scale): 5
- Plant response rating, Spanishneedles (Spanishneedles; Rate 500 g/ha): 0
